Laboratory results taken from US4645858A, “Pentanedioic acid derivatives” (G. D. Searle & Co., priority 1985, dated 1987).
pIC50: −log10 of the molar value.

Tests used:
male Rhesus monkey = test: In vivo serum cholesterol test in male Rhesus monkeys; settings: 60 mg/kg/day
Protocol: In vivo activity is tested as follows:
Initial serum total cholesterol, triglycerides, and lipoprotein cholesterol values are determined 3 times for each male Rhesus monkey used before treatment with a test compound begins. The test compound is administered in an initial dose of 60 mg/kg for 2 weeks and blood samples are taken to determine if rebound occurs. […] Statistical comparisons are made using the two tailed student's test.

HMG CoA reductase = target: T1, HMG CoA reductase (Rattus norvegicus, UniProt P51639); test: HMG CoA reductase activity assay (rat liver microsomal preparation); assay type: biochemical
T1 construct: The resultant supernatants are discarded and the residues suspended in half the volume of homogenization medium previously employed; from tissue; host or cells: liver of male Charles River CD rats treated with 20,25-diazacholesterol; 100,000×g pellet (microsomes) of the homogenate
T1 sequence (P51639 1-887): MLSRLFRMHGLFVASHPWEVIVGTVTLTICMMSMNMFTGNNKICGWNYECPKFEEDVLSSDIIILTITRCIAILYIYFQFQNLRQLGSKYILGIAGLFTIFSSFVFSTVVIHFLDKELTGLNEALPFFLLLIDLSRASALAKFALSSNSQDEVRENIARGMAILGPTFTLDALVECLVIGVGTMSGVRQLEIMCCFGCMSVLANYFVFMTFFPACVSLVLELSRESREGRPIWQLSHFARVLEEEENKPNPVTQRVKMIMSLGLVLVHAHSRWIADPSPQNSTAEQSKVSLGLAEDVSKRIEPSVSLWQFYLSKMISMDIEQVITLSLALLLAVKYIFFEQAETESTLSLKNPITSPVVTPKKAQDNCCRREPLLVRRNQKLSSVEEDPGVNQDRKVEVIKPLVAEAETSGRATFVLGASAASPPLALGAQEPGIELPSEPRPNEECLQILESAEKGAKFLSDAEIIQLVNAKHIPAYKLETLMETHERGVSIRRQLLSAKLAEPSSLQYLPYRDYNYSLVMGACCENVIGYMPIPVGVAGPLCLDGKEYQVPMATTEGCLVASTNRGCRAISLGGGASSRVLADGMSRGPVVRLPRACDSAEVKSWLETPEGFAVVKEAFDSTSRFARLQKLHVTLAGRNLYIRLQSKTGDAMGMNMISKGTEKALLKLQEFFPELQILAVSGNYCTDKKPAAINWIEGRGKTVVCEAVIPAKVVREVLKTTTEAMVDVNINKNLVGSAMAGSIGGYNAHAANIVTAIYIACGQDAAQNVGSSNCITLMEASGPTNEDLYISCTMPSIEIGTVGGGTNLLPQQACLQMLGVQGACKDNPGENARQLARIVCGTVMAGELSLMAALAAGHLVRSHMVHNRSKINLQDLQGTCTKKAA

For CC(C)(C)CCCCCCCCCCCC(O)(CC(=O)O)CC(=O)O, which reduced serum cholesterol (male Rhesus monkey; after 14 days of treatment, Rhesus monkey) is on record?
The reduced serum cholesterol was 30%.

How did the “HMG CoA reductase inhibition” value (HMG CoA reductase; at concentrations at least up to 1000 μm) turn out when O=C(O)CC(O)(CC(=O)O)CC1CCCC1 was run?
The value was “inactive”.

For CCCCCCCCCCCCCCCC(O)(CC(=O)O)CC(=O)O, which acute toxicity (male Rhesus monkey; Rhesus monkeys) is on record?
The acute toxicity was “acute toxicity in 2 of 4 monkeys”.

With O=C(O)CC(O)(CCCCCCCCCCC1CCCCC1)CC(=O)O as the molecule, how does the pIC50 (HMG CoA reductase; read-out: IC50 (HMG CoA reductase inhibition)) read?
The pIC50 was 4.28.
